Experimental findings from patent publication US10017515B2, “Stable amorphous ticagrelor and a process for its preparation” (Sun Pharmaceutical Industries Limited, priority 2014, dated 2018) are described below.

SMILES strings stand for the structures.

The nature of data set [1]: Stability on storage, HPLC purity. Format: physicochemical. Conditions: material of Example 6. The protocol:
HPLC purity (initial and at stability at a temperature of 25° C.±2° C. at relative humidity of 60% ±5% for 1, 2, 3, and 6 months): 99.8%
HPLC purity (initial and at stability at a temperature of 5° C.±3° C. for 3 and 6 months): 99.9%

Data set [2] can be described thus: Stability on storage, X-ray powder diffraction (XRPD) pattern. Format: physicochemical. Here is the method:
The X-ray powder diffraction (XRPD) pattern was recorded using a PANalytical® X'pert PRO with X'celerator® as the detector.

The mark [3] stands for this setting: 25° C.±2° C., relative humidity 60% ±5%, for 1, 2, 3, and 6 months.

Turning to `CCCSc1nc(N[C@@H]2C[C@H]2c2ccc(F)c(F)c2)c2nnn([C@@H]3C[C@H](OCCO)[C@@H](O)[C@H]3O)c2n1` [amorphous ticagrelor, (1S,2S,3R,5S)-3-[7-{[(1R,2S)-2-(3,4-difluorophenyl)cyclopropyl]amino}-5-(propylthio)-3H-[1,2,3]-triazolo[4,5-d]pyrimidin-3-yl]-5-(2-hydroxyethoxy)cyclopentane-1,2-diol], the “HPLC purity (initial and at stability)” value was found to be 99.9% in data set [1] (5° C.±3° C. for 3 and 6 months); 99.8% in data set [1] (setting [3]). Also, the “Change in XRPD pattern on storage” value in data set [2] (5° C.±3° C. for 3 and 6 months) is “no change was observed in the XRPD pattern”; in data set [2] (5° C.±3° C. for 3 and 6 months, listed as stable amorphous ticagrelor), “no change in XRPD pattern”; in data set [2] (setting [3]), “no change was observed in the XRPD pattern”; in data set [2] (25° C.±2° C., relative humidity 60% ±5%, for 1, 2, 3, and 6 months, listed as stable amorphous ticagrelor), “no change in XRPD pattern”.
